Measured values: ChEMBL document CHEMBL3396973, “Synthesis and biological evaluation of new pyrazol-4-ylpyrimidine derivatives as potential ROS1 kinase inhibitors” (Eur J Med Chem, 2015)

Columns and labels:
[1] = target: T1, Proto-oncogene tyrosine-protein kinase ROS (Homo sapiens, UniProt P08922)
[2] = target: T2, Hepatocyte growth factor receptor (Homo sapiens, UniProt P08581)
[3] = target: T1, Proto-oncogene tyrosine-protein kinase ROS; assay: Inhibition of ROS1 (unknown origin) by HotSpot assay
[4] = target: ALK tyrosine kinase receptor (Homo sapiens, UniProt Q9UM73)
[5] = target: T2, Hepatocyte growth factor receptor; remark: listed apart in the source
[6] = target: T1, Proto-oncogene tyrosine-protein kinase ROS; remark: listed apart in the source
[7] = target: T1, Proto-oncogene tyrosine-protein kinase ROS; remark: listed apart in the source

T1 sequence (P08922 whole entry): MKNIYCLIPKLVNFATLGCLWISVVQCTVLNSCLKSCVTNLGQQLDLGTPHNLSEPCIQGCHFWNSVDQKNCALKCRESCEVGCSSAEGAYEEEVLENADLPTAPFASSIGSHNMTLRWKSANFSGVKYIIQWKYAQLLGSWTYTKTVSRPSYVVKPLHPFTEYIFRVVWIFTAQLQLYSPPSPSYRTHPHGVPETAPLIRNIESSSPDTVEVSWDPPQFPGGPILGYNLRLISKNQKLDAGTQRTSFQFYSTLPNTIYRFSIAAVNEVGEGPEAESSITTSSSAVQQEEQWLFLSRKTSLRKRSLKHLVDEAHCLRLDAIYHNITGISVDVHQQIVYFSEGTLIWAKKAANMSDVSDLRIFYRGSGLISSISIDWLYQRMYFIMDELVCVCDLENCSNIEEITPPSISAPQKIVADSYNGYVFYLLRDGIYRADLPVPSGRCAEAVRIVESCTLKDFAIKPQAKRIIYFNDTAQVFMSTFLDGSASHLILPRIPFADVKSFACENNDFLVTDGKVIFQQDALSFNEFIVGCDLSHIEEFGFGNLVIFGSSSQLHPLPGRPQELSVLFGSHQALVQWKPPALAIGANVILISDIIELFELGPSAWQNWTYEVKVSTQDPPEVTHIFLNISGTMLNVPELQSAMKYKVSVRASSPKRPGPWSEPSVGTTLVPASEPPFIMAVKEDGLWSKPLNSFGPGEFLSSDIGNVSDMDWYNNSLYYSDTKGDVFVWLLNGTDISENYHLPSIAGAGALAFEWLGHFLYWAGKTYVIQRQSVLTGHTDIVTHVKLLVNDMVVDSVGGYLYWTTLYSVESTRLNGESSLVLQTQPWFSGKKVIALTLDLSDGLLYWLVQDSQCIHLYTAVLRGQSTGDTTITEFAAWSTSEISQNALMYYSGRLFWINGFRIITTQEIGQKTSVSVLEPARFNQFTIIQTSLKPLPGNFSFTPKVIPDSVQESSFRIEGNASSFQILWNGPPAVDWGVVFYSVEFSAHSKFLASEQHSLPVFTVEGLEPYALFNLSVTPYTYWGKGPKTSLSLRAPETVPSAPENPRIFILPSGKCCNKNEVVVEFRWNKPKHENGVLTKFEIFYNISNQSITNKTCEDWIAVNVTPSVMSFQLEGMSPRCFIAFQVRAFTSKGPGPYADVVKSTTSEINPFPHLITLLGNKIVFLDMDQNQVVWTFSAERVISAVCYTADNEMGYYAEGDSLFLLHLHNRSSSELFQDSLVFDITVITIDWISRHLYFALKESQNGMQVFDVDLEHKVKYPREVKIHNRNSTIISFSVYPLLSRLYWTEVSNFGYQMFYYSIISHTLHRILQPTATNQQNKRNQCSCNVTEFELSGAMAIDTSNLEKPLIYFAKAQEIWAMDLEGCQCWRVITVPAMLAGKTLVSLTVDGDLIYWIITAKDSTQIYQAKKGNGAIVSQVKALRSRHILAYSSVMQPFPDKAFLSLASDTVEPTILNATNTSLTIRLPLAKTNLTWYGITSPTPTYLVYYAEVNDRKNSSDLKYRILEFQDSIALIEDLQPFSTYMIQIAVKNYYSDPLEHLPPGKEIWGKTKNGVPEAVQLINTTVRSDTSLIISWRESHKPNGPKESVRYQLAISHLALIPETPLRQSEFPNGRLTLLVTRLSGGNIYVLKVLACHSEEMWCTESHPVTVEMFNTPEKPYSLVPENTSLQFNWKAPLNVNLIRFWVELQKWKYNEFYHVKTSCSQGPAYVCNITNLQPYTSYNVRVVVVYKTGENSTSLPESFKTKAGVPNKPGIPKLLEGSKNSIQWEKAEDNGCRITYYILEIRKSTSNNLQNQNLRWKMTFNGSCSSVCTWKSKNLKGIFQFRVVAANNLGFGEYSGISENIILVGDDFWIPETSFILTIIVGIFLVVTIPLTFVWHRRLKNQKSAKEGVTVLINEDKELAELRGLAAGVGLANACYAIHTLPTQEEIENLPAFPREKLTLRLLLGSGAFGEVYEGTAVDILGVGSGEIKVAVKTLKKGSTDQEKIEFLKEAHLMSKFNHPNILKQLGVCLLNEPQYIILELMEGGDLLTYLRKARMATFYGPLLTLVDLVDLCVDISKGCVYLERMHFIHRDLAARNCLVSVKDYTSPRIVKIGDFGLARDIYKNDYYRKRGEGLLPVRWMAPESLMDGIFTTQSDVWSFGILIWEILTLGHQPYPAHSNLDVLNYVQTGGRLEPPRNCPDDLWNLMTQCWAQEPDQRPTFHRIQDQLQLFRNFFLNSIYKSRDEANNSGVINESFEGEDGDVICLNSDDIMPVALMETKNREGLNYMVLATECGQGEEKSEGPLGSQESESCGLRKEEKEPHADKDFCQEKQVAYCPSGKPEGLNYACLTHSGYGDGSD
T2 sequence (P08581 whole entry): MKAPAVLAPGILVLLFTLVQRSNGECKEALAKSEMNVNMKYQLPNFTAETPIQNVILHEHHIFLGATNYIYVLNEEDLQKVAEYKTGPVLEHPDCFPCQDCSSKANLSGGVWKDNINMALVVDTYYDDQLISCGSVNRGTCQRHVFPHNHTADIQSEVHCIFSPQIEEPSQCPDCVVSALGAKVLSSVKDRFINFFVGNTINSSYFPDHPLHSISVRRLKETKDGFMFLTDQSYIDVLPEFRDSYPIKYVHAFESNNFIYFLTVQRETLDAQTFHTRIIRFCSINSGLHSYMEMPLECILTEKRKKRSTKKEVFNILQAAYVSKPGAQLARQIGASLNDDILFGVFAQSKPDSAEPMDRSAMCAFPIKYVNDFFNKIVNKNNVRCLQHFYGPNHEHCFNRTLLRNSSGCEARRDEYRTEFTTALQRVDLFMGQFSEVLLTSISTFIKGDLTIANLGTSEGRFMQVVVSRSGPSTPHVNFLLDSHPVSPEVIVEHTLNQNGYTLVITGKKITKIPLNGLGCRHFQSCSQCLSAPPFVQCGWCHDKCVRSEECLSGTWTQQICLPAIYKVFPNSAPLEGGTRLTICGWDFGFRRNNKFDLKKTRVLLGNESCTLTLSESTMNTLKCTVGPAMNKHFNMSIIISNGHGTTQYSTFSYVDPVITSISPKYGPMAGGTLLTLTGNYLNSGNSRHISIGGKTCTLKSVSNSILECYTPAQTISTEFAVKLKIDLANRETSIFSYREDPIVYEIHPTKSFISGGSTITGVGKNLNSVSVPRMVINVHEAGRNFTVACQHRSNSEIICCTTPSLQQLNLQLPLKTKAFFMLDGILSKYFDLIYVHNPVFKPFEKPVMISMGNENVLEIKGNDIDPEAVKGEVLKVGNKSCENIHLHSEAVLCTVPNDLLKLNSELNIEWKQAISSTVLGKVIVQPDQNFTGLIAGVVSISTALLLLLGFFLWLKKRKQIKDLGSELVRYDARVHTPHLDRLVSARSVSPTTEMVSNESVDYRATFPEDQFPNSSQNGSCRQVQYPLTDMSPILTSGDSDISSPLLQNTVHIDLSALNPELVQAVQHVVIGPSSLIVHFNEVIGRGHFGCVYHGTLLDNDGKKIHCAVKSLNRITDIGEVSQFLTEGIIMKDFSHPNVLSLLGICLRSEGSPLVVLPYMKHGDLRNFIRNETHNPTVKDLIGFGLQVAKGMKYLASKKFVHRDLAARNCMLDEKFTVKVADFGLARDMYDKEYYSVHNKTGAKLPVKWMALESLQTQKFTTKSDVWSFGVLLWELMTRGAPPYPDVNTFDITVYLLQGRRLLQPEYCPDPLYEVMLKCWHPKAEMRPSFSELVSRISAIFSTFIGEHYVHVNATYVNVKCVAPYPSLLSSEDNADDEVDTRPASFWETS

SMILES	IC50 [1] [nM]	IC50 [2]	also measured
COc1cc(C)cc(-c2nn(CC#N)cc2-c2cc(NCC(C)C)nc(-c3cccnc3)n2)c1	920	Not Active	
Cc1cc(O)cc(-c2nn(CC#N)cc2-c2cc(NCCCCO)nc(-c3cccnc3)n2)c1	24	Not Active	
COc1cc(C)cc(-c2c(-c3ccnc(-c4ccc(NC(C)=O)cc4)c3)cnn2CC#N)c1			IC50 [3]: 6250 nM
COc1cc(C)cc(-c2nn(CC#N)cc2-c2cc(NCCCO)nc(-c3cccnc3)n2)c1	119	Not Active	
Cc1cc(O)cc(-c2nn(CC#N)cc2-c2cc(NCCCO)nc(-c3cccnc3)n2)c1	108	Not Active	
Cc1cc(O)cc(-c2nn(CC#N)cc2-c2cc(NC[C@H](C)O)nc(-c3cccnc3)n2)c1	1.7		IC50 [4]: 0.6 nM; IC50 [5]: 11 nM
Cc1ncc(-c2ccnc(-c3cccnc3)c2)c(-c2ccc(F)cc2Cl)n1	570		
COCCCNc1cc(-c2cnc(C)nc2-c2ccc(Cl)cc2Cl)nc(-c2ccccc2)n1			IC50 [6]: Not Active
COCCCNc1cc(-c2cnc(C)nc2-c2ccc(F)cc2Cl)nc(-c2cccnc2)n1	1330		
COc1ccc(-c2cc(-c3c[nH]nc3-c3cc(C)cc(OC)c3)ccn2)cc1			IC50 [3]: 1250 nM
COc1cc(N2CCC(N(C)C)CC2)ccc1Nc1ncc(Cl)c(Nc2ccccc2P(C)(C)=O)n1			IC50 [7]: 1.9 nM
COCCCNc1cc(-c2cnc(C)nc2-c2ccc(F)cc2Cl)nc(-c2ccccc2)n1			IC50 [6]: Not Active

Further lines, with some results ahead:

IC50 [1] [nM]	IC50 [2]	SMILES	also measured
183	Not Active	Cc1cc(O)cc(-c2nn(CC#N)cc2-c2cc(NCCCN3CCOCC3)nc(-c3cccnc3)n2)c1	
148	Not Active	COc1cc(C)cc(-c2nn(CC#N)cc2-c2cc(NCCN3CCOCC3)nc(-c3cccnc3)n2)c1	
330		Cc1ncc(-c2ccnc(-c3cccnc3)c2)c(-c2ccc(Cl)cc2Cl)n1	
478	Not Active	Cc1cc(O)cc(-c2nn(CC#N)cc2-c2cc(NCCN3CCOCC3)nc(-c3cccnc3)n2)c1	
56	Not Active	COc1cc(C)cc(-c2nn(CC#N)cc2-c2cc(NCCCCO)nc(-c3cccnc3)n2)c1	
780	Not Active	Cc1cc(O)cc(-c2nn(CC#N)cc2-c2cc(NCC(C)C)nc(-c3cccnc3)n2)c1	
357		COCCCNc1cc(-c2cnc(C)nc2-c2ccc(Cl)cc2Cl)nc(-c2cccnc2)n1	
88	Not Active	COc1cc(C)cc(-c2nn(CC#N)cc2-c2cc(NCCCN3CCOCC3)nc(-c3cccnc3)n2)c1	
